{"source": "patent US20240358721A1", "about": "“GASDERMIN-D INHIBITORS AND USES THEREOF FOR TREATING PULMONARY VASO-OCCLUSION” (UNIVERSITY OF PITTSBURGH-OF THE COMMONWEALTH SYSTEM OF …, priority 2021, published 2024)", "system": "SCD-Selp−/− mice", "assay": "qFILM detection of circulating NETs arriving in the lung microcirculation, SCD-Selp−/− mice", "type": "in vivo, mouse", "details": "IV 10 μmole/kg oxy-Hb with 10 mg/kg inhibitor vs oxy-Hb alone, significant", "experimental": "(FIG. 5A) Experimental scheme: SCD or SCD-Selp^−/− mice were IV administered 10 μmole/kg oxy-Hb (10 oxy-Hb) without or with 10 mg/kg GSDMD inhibitors LDC75591 or Disulfiram. In FIGS. 5C-5D, venous blood was processed to generate PPP and cNETs detected in PPP using Imaging Flow Cytometry. Imaging Flow Cytometry data was quantified to estimate concentration of cNETs (#cNETs/μl of plasma). In FIGS. 5B, and 5E-5F, quantitative fluorescence intravital lung microscopy (qFILM) was used to detect arrival of circulating NETs (cNETs) within the lung microcirculation. Number of cNETs entering per FOV over a 1-minute duration (#cNETs/FOV/min) were quantified. In FIGS. 5G-5J, qFILM was used to assess the absence or presence of pulmonary vaso-occlusion using the experimental strategy described in FIG. 1A. Pulmonary vaso-occlusions (PVOs) were compared between treatment groups using following two parameters: Number of PVOs per Field of View (#PVOs/FOV) and number of large PVOs (with area>1000 μm^2) per FOV. […]\nQuantitative fluorescence intravital lung microscopy (qFILM) has been used widely for in vivo assessment of pulmonary vasoocclusion in mice with SCD [Bennewitz M F et al., (2017); Vats R, Brzoska T, Bennewitz M F, et al. (2020); Vats R, Tutuncuoglu E, Pradhan-Sundd T, Tejero J, Shaw G D, Sundd P. (2020); Bennewitz M F, Tutuncuoglu E, Gudapati S, et al. (2020)] […]"}
{"smiles": "COc1ccccc1-c1cc2n(n1)Cc1ccc(NC(C)=O)cc1OC2", "note": "[LDC7559]", "values": [{"measurement": "#cNETs/FOV/min in the lung, less than 10 oxy-Hb alone", "value": 4, "unit": "folds"}]}
